Bounds are passed on as bounds.

One test has as its system HCV replicon. Description: Replicon based assay of HCV replication inhibition (NPT ELISA). The test is classed as cell-based, Hepatitis C virus. To be noted: Hepatitis C virus, Huh-7, 72 h, Table I; Huh-7 HCV replicon-containing cells, three days; read-out: Activity. As for the experimental part: Compounds claimed herein are tested for the ability to inhibit viral replication of the Hepatitis C replicon in cultured cells in which the HCV replicon construct has been incorporated. The HCV replicon system was described by Bartenschlager, et. al (Science, 285, pp. 110-113 (1999)). The replicon system is predictive of in vivo anti-HCV activity; compounds that are active in humans uniformly evidence activity in the replicon assay.
In this assay HCV replicon containing cells are treated with different concentrations of the test compound to ascertain the ability of the test compound to suppress replication of the HCV replicon. As a positive control, HCV replicon-containing cells are treated with different concentrations of interferon alpha, a known inhibitor of HCV replication. The replicon assay system includes Neomycin Phosphotransferase (NPT) as a component of the replicon itself in order to detect the transcription of replicon gene products in the host cell. Cells in which the HCV replicon is actively replicating have high levels of NPT; the level of NPT is proportional to HCV replication. […] The NPT level of each sample is measured using a captured ELISA.
A protocol for testing compounds for the ability to inhibit viral replication of the Hepatitis C replicon cultured cells in which the replicon construct has been incorporated, follows.
The HCV replicon contains, 5′-3′, the HCV-IRES, the neomycin phosphotransferase (neo) gene, the IRES of encephalomyocarditis virus, which directs translation of HCV sequences NS3 to NS5B, and the 3′-NTR. The sequence of the HCV replicon has been deposited in GenBank (Accession no. AJ242652).
The replicon is transfected into Huh-7 cells using standard methods such as electroporation.
The equipment and materials include, but are not limited to, Huh-7 HCV replicon-containing cells, maintenance media (DMEM (Dulbecco's modified Eagle media) supplemented with 10% FBS, L-glutamine, non-essential amino acids, penicillin (100 units/ml), streptomycin (100 micrograms/ml), and 500 micrograms/ml of Geneticin (G418), screening media (DMEM supplemented with 10% FBS, L-glutamine, non-essential amino acids, penicillin (100 units/ml) and streptomycin (100 micrograms/ml)), 96 well tissue culture plates (flat bottom), 96 well plates (U bottom for drug dilution), Interferon alpha for positive control, fixation reagent (such as methanol: acetone), primary antibody (rabbit anti-NPTII), secondary antibody: Eu-N1l, and enhancement solution.
The cells are then seeded onto 96-well plates at a density of 6000-7500 cells/100 microliters/well (6-7.5×10^5 cells/10 ml/plate). The plates are then incubated at 37° C. in a 5% CO2 incubator.
HCV replicon-containing cells are rinsed with once PBS once; 2 mls of trypsin are then added. Cells are incubated at 37° C. in a 5% CO2 incubator for 3-5 minutes. 10 mls of complete medium is added to stop the reaction. Cells are blown gently, put into a 15 ml tube, and spun at 1200 rpm for four minutes. The trypsin/medium solution is removed and 5 mls of medium (500 ml DMEM (high glucose)) from BRL catalog #12430-054; 50 mls 10% FBS, 5% Geneticin G418 (50 mg/ml, BRL catalog #10131-035), 5 ml MEM non-essential amino acids (100×BRL #11140-050) and 5 ml pen-strep (BRL # 15140-148) is added. The cells and media are mixed carefully
Cells are plated with screening medium (500 ml DMEM (BRL #21063-029), 50 ml FBS (BRL #10082-147) and 5 ml MEM non-essential amino acid (BRL #11140-050) at 6000-7500 cells/100 μl/well of 96 well plate (6-7.5×10^5 cells/10 ml/plate). Plates are placed into 37° C. 5% CO2 incubator overnight.
The following morning, drugs (test compounds or interferon alpha) are diluted in 96 well U bottom plates with media or DMSO/media, depending on the final concentration chosen for screening. Generally for 6 concentrations of each test compounds ranging from 10 micromolar to 0.03 micromolar are applied. […]
In the case of `CCCCCc1ccc(Nc2nc(-c3ccc(Cl)c(Cl)c3)cs2)cc1` [compound 22, 4-(3,4-dichlorophenyl)-N-(4-pentylphenyl)thiazol-2-amine], the EC50 was under 1000 nM. Still for that read-out and setting: the figure for `c1cncc(-c2csc(Nc3ccc(CN4CCCCC4)cc3)n2)c1` [compound 69, N-(4-((piperidin-1-yl)methyl)phenyl)-4-(pyridin-3-yl)thiazol-2-amine] is over 10000 nM; for `c1ccc(CCOc2cccc(Nc3nc(-c4cccnc4)cs3)c2)cc1` [compound 89] it is under 1000 nM.

For the compound `CCCCCOc1ccc(Nc2nc(-c3cccc(F)c3)cs2)cn1` [compound 178, N-(4-(3-fluorophenyl)thiazol-2-yl)-6-(pentyloxy)pyridin-3-amine], the EC50 was under 1000 nM. As for `Clc1ccc(-c2csc(Nc3ccc(Cl)c(Cl)c3)n2)cc1` [compound 50, N-(3,4-dichlorophenyl)-4-(4-chlorophenyl)thiazol-2-amine], the EC50 was over 10000 nM. Same read-out and setting: for `CCCCCOc1ccc(Nc2nc(-c3cc(-c4ccc(Cl)c(Cl)c4)no3)cs2)cc1F` [compound 175, 4-(3-(3,4-dichlorophenyl)isoxazol-5-yl)-N-(3-fluoro-4-(pentyloxy)phenyl)thiazol-2-amine] the value was over 10000 nM. Take `CCOC(=O)c1cc(-c2csc(Nc3cccc(OCc4ccccc4)c3)n2)on1` [compound 195, ethyl 5-(2-(3-(benzyloxy)phenylamino)thiazol-4-yl)isoxazole-3-carboxylate]: the EC50 was over 10000 nM.

The same test, now with this note: Hepatitis C virus, Huh-7, 72 h, Table III; Huh-7 HCV replicon-containing cells, three days; read-out: Activity.
Regarding `CCCCCCCCOc1ccc(Nc2nc(-c3ccc4c(c3)OCO4)cs2)cc1C(F)(F)F` [compound 706, 4-(benzo[d][1,3]dioxol-5-yl)-N-(3-(trifluoromethyl)-4-(octyloxy)phenyl)thiazol-2-amine], the EC50 is under 1000 nM.

For `CCCCCCCCOc1ccc(Nc2nc(-c3cncc(C(=O)O)c3)cs2)cc1` [compound 648, 5-(2-(4-(octyloxy)phenylamino)thiazol-4-yl)pyridine-3-carboxylic acid], the EC50 lay in the range of 1000 to 10000 nM. As for `CCCCCCCCN(C)c1ccc(Nc2nc(-c3sc(-c4cnccn4)nc3C)cs2)cc1C(F)(F)F` [compound 578, 2-(trifluoromethyl)-N^1-methyl-N^4-(4-(4-methyl-2-(pyrazin-2-yl)thiazol-5-yl)thiazol-2-yl)-N^1-octylbenzene-1,4-diamine], the EC50 fell in the range of 1000 to 10000 nM.

Regarding `CCCCCOc1ccc(Nc2nc(-c3cncnc3)cs2)cc1F` [compound 618, N-(3-fluoro-4-(pentyloxy)phenyl)-4-(pyrimidin-5-yl)thiazol-2-amine], the EC50 is under 1000 nM.

Take `CCCCCCCCOc1ccc(Nc2nc(-c3ccc(Cl)cc3)cs2)cc1C(F)(F)F` [compound 591, 4-(4-chlorophenyl)-N-(3-(trifluoromethyl)-4-(octyloxy)phenyl)thiazol-2-amine]: the EC50 is under 1000 nM.

For `CCCCCCCCOc1ccc(Nc2nc(-c3ccc4c(c3)NC(=O)CO4)cs2)cc1C(F)(F)F` [compound 584, 6-(2-(3-(trifluoromethyl)-4-(octyloxy)phenylamino)thiazol-4-yl)-2H-benzo[b][1,4]oxazin-3(4H)-one], the EC50 is under 1000 nM. Same read-out and setting: for `CCCCCCCCc1ccc(Nc2nc(-c3ccc(O)c(O)c3)cs2)cc1` [compound 547, 4-(2-(4-octylphenylamino)thiazol-4-yl)benzene-1,2-diol] the value was under 1000 nM.

The test is the same for the next values; noted with them: Hepatitis C virus, replicon based assay of HCV replication inhibition; Table II; read-out: Activity.
For the compound `CCCCCOc1ccc(Nc2nc(-c3ccc(C(=O)O)cc3)cs2)cc1F` [compound 426, 4-(2-(3-fluoro-4-(pentyloxy)phenylamino)thia-zol-4-yl)benzoic acid], the EC50 is 1000 to 10000 nM. As to `CCCCCOc1ccc(Nc2nc(CN3CCN(C(=O)OC(C)(C)C)CC3)cs2)cc1F` [compound 279, tert-butyl 4-((2-(3-fluoro-4-(pentyloxy)phenylamino)thia-zol-4-yl)methyl)piperiazine-1-carboxylate], the EC50 lay within 1000 to 10000 nM. On the same count and under the same terms, the figure for `CCCCCOc1ccc(Nc2nc(C3(C(=O)OCC)CC3)cs2)cc1C(F)(F)F` [compound 367, ethyl 1-(2-(4-(pentyloxy)-3-(trifluoromethyl)pheenyl-amino)thiazol-4-yl)cyclopropanecarboxylate] is over 10000 nM; for `CCCCCOc1ccc(Nc2nc(CNc3ccc(Cl)c(Cl)c3)cs2)cc1C(F)(F)F` [compound 261] it is 1000 to 10000 nM; for `CCCCCCCCOc1ccc(Nc2nc(Cc3ccccc3)cs2)cc1` [compound 513, 4-benyl-N-(4-(octyloxy)phenyl)thiazol-2-amine] it is over 10000 nM. For the compound `CCCCCOc1ccc(Nc2nc(CN3C(C)CCCC3C)cs2)cc1C(F)(F)F` (stereo not drawn) [compound 277, 4-((2,6-dimethylpiperidin-1-yl)methyl)-N-(4-(pentyloxy)-3-(trifluoromthyl)phenyl)thia-zol-2-amine], the EC50 was under 1000 nM. For `CCCCCOc1ccc(Nc2nc(CN3CCC(N(C)C(=O)OC(C)(C)C)C3)cs2)cc1C(F)(F)F` (stereo not drawn) [compound 266, tert-butyl methyl(1-((2-(4-(pentyloxy)-3-(trifluoromethyl)phenyl-amino)thiazol-4-yl)methyl)pyrrolidin-3-yl)carbamate], the EC50 was under 1000 nM. For `CCCCCCCCOc1ccc(Nc2nc(CN3CCC(C)CC3)cs2)cc1` [compound 324, 4-((4-methylpiperidin-1-yl)methyl)-N-(4-(octyloxy)phenyl)thiazol-2-amine], the EC50 lay within 1000 to 10000 nM. On the same count and under the same terms, for `CCCCCCCCOc1ccc(Nc2nc(CN3C(C)CCCC3C)cs2)cc1` (stereo not drawn) [compound 326, 4-((2,6-dimethylpiperidin-1-yl)methyl)-N-(4-(octyloxy)phenyl)thiazol-2-amine] the value was 1000 to 10000 nM.

The same test, now with this note: Hepatitis C virus, replicon based assay of HCV replication inhibition; Table IV; read-out: Activity.
`OCCc1ccc(-c2csc(Nc3ccc(OCC4CCCCC4)c(F)c3)n2)cc1` [compound 724, 2-(4-(2-(4-(cyclohexylmethoxy)-3-fluorophenylamino)thiazol-4-yl)phenyl)ethanol]: the EC50 fell in the range of 1000 to 10000 nM. Consider `CCCCOC(=O)c1n[nH]c(Nc2nc(-c3cccnc3)cs2)n1` [compound 795, butyl 5-(4-(pyridin-3-yl)thiazol-2-ylamino)-1H-1,2,4-triazole-3-carboxylate], for which the EC50 is over 10000 nM. The same measure, in the same setting: the figure for `CCCCCCCCOc1ccc(Nc2nc(C3=CSC4=NCCCN34)cs2)cc1C(F)(F)F` [compound 786, N-(3-(trifluoromethyl)-4-(octyloxy)phenyl)-4-(6,7-dihydro-5H-thiazolo[3,2-a]pyrimidin-3-yl)thiazol-2-amine] is under 1000 nM; for `Cc1ccc(Nc2nc(-c3cccnc3)cs2)cc1C(F)(F)F` [compound 879, N-(3-(trifluoromethyl)-4-methylphenyl)-4-(pyridin-3-yl)thiazol-2-amine] it is under 1000 nM; for `Cc1cc(Nc2nc(-c3cccnc3)cs2)ccc1OCCCCc1ccccc1` [compound 936, N-(4-(4-phenylbutoxy)-3-methylphenyl)-4-(pyridin-3-yl)thiazol-2-amine] it is under 1000 nM. On to `CCCCCCCCOc1ccc(Nc2nc(-c3ccc(O)nc3)cs2)cc1C(F)(F)F` [compound 733, 5-(2-(3-(trifluoromethyl)-4-(octyloxy)phenylamino)thiazol-4-yl)pyridin-2-ol], for which the EC50 was under 1000 nM.

Still in this test, the particulars now being: replicon based assay of HCV replication inhibition; Table II; read-out: Activity.
`CCCCCCCCOc1ccc(Nc2nc(-c3ccc(C(=O)N(C)C)nc3)cs2)cn1` [compound 471, 5-(2-(6-(octyloxy)pyridin-3-ylamino)thiazol-4-yl)-N,N-dimethylpyridine-2-carboxamide]: the EC50 was under 1000 nM.

For the origin of these results see US8088806B2 (Achillion Pharmaceuticals, Inc., priority 2005, dated 2012).
